In US20230233569A1 (Revolution Medicines, Inc., priority 2020, published 2023):
Read-outs that look alike come from different tables or passages of the source.

Assays:
[1] = molecular target: KRAS G12C (Homo sapiens, UniProt P01116+P62937, G12C); test: Ras-Raf disruption / FRET / MOA assay (BRAF RBD); format: biochemical; conditions: KRAS G12C FRET data IC50, Ras-Raf disruption, with Cyclophilin A
Procedure, shortened: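 TR-FRET read-out after 1.5 h with anti-His Eu-W1024 (10 nM) and anti-GST APC (50 nM), following 3 h at 25 °C of compound (top 30 μM, 3-fold, 10 points) with 25 μM Cyclophilin A, 12.5 nM GMPPNP-loaded K-Ras G12C and 50 nM BRAF RBD; IC50 reported.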

[2] = test system: AsPC-1 (K-Ras G12D); test: Potency assay: pERK; format: cell-based; conditions: Homo sapiens
[3] = test system: AsPC-1 (K-Ras G12D); test: CellTiter-Glo cell viability assay; format: cell-based; conditions: Homo sapiens, ASPC1, 120 h
Protocol: Determination of Cell Viability in RAS Mutant Cancer Cell Lines
Protocol: CellTiter-Glo® Cell Viability Assay
Note—The following protocol describes a procedure for monitoring cell viability of K-Ras mutant cancer cell lines in response to a compound of the invention. Other RAS isoforms may be employed, though the number of cells to be seeded will vary based on cell line used.
Test compounds (132.5 nL) were directly dispensed into the assay plates containing cells. […] On day 5, assay plates and their contents were equilibrated to room temperature for approximately 30 minutes. […] Luminescence was measured using the PerkinElmer Enspire. Data were normalized by the following: (Sample signal/Avg. DMSO)*100. The data were fit using a four-parameter logistic fit.

[4] = molecular target: KRAS G12S (Homo sapiens, UniProt P01116+P62937, G12S); test: Ras-Raf disruption / FRET / MOA assay (BRAF RBD); format: biochemical; conditions: KRAS G12S FRET data IC50, Ras-Raf disruption, with Cyclophilin A
Procedure, shortened: (§1)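 Compound-induced Ras–Cyclophilin A ternary complex disrupting BRAF RBD binding, read as IC50 from reduced TR-FRET ratio relative to DMSO. Final: Ras-GMPPNP 12.5 nM, BRAF RBD 50 nM, Cyclophilin A 25 μM, top compound 30 μM (3-fold, 10 points); 3 h at 25 °C, then 1.5 h with detection antibodies.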

[5] = molecular target: KRAS G13C (Homo sapiens, UniProt P01116+P62937, G13C); test: Ras-Raf disruption / FRET / MOA assay (BRAF RBD); format: biochemical; conditions: KRAS G13C FRET data IC50, Ras-Raf disruption, with Cyclophilin A
Procedure, shortened: as §1

[6] = molecular target: KRAS G12D (Homo sapiens, UniProt P01116+P62937, G12D); test: Ras-Raf disruption / FRET / MOA assay (BRAF RBD); format: biochemical; conditions: KRAS G12D FRET data IC50, Ras-Raf disruption, with Cyclophilin A
Procedure, shortened: as §1

[7] = molecular target: KRAS G13D (Homo sapiens, UniProt P01116+P62937, G13D); test: Ras-Raf disruption / FRET / MOA assay (BRAF RBD); format: biochemical; conditions: KRAS G13D FRET data IC50, Ras-Raf disruption, with Cyclophilin A
Procedure, shortened: as §1

[8] = molecular target: KRAS G12V (Homo sapiens, UniProt P01116+P62937, G12V); test: Ras-Raf disruption / FRET / MOA assay (BRAF RBD); format: biochemical; conditions: KRAS G12V FRET data IC50, Ras-Raf disruption, with Cyclophilin A
Procedure, shortened: as §1

[9] = molecular target: KRAS WT (Homo sapiens, UniProt P01116+P62937); test: Ras-Raf disruption / FRET / MOA assay (BRAF RBD); format: biochemical; conditions: KRAS WT FRET data IC50, Ras-Raf disruption, with Cyclophilin A
Procedure, shortened: as §1

[10] = molecular target: NRAS G12C (Homo sapiens, UniProt P01111+P62937, G12C); test: Ras-Raf disruption / FRET / MOA assay (BRAF RBD); format: biochemical; conditions: NRAS G12C FRET data IC50, NRAS G12C
Procedure, shortened: as §1

[11] = read-out: AsPC-1 Cell Viability assay data IC50, K-Ras G12D, 5-day treatment
[12] = ASPC1, AsPC-1 KRAS G12D, read-out: pERK EC50
[13] = K-Ras G12D, 5-day treatment, read-out: AsPC-1 Cell Viability assay data IC50

Chain of KRAS G12V (P01116 1-169 isoform P01116-2 G12V limits assumed): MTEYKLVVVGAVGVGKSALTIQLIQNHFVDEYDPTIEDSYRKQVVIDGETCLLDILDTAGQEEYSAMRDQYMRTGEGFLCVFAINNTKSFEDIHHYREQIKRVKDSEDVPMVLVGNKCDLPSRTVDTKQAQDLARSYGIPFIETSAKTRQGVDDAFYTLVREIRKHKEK
Chain of KRAS G12V (P62937 whole entry): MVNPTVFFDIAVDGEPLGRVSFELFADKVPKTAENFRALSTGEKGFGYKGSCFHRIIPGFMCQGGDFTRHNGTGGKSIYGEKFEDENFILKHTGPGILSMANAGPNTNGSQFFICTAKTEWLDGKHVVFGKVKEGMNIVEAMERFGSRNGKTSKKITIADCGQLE
Chain of KRAS G12C (P01116 1-169 isoform P01116-2 G12C limits assumed): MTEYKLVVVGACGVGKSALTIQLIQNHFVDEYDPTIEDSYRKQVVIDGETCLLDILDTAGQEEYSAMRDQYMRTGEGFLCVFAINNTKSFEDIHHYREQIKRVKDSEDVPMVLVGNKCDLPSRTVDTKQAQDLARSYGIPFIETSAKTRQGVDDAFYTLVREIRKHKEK
Chain of KRAS G12C (P62937 whole entry): as the sequence (P62937 whole entry) above
Chain of KRAS G13C (P01116 1-169 isoform P01116-2 G13C limits assumed): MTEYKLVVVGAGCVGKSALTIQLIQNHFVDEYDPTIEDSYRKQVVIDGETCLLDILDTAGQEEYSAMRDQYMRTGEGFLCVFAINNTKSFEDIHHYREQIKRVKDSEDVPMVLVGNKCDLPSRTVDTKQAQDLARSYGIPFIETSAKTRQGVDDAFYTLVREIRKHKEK
Chain of KRAS G13C (P62937 whole entry): as the sequence (P62937 whole entry) above
Chain of KRAS G13D (P01116 1-169 isoform P01116-2 G13D limits assumed): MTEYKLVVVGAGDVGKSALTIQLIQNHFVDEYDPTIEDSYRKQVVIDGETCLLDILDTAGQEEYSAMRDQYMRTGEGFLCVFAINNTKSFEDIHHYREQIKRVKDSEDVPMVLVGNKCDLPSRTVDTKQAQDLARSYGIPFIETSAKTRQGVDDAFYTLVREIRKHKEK
Chain of KRAS G13D (P62937 whole entry): as the sequence (P62937 whole entry) above
Chain of NRAS G12C (P01111 whole entry G12C): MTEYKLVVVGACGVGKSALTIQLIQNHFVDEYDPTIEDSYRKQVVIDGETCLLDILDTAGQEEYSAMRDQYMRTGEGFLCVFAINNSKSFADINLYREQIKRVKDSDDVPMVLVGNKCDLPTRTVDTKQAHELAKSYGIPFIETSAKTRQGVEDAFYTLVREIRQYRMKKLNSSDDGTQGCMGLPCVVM
Chain of NRAS G12C (P62937 whole entry): as the sequence (P62937 whole entry) above
Chain of KRAS G12D (P01116 1-169 isoform P01116-2 G12D limits assumed): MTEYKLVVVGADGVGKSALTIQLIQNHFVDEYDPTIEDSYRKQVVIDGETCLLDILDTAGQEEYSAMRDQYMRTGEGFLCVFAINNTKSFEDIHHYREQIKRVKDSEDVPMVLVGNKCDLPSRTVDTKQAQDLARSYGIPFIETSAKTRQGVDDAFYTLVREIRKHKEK
Chain of KRAS G12D (P62937 whole entry): as the sequence (P62937 whole entry) above
Chain of KRAS G12S (P01116 1-169 isoform P01116-2 G12S limits assumed): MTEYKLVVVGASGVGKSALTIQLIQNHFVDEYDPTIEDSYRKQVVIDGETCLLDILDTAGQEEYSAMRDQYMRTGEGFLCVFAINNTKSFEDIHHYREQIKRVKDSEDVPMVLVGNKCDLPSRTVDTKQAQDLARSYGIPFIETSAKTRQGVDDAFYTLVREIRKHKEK
Chain of KRAS G12S (P62937 whole entry): as the sequence (P62937 whole entry) above
Chain of KRAS WT (P01116 1-169 isoform P01116-2 limits assumed): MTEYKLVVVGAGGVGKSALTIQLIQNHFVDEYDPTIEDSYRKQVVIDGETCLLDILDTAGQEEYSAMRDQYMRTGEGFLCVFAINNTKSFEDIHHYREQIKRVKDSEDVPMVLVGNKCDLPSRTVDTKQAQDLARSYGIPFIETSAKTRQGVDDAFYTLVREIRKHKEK
Chain of KRAS WT (P62937 whole entry): as the sequence (P62937 whole entry) above

SMILES	IC50 [1]	EC50 ([2]; ASPC1, read-out: pERK EC50)	IC50 [3, 11]	IC50 [4]	IC50 [5]	IC50 [6]	IC50 [7]	IC50 [8]	IC50 [9]	IC50 [10]	EC50 [2, 12]	IC50 [3, 13]
CCn1c(-c2cnccc2COC)c2c3cc(ccc31)-c1cc(O)cc(c1)C[C@H](NC(=O)[C@H](C(C)C)N(C)C(=O)CN(C)C(=O)C1CN1)C(=O)N1CCC[C@H](N1)C(=O)OCC(C)(C)C2 (stereo partly shown) [Example 33]	10 to 100 nM	< 5000 nM										
CCn1c(-c2cnccc2COC)c2c3cc(ccc31)-c1cc(O)cc(c1)C[C@H](NC(=O)[C@H](C(C)C)N(C)C(=O)CN(C)C(=O)[C@H]1N[C@H]1C(=O)OC)C(=O)N1CCC[C@H](N1)C(=O)OCC(C)(C)C2 [Example 51]		< 5000 nM	> 10000 nM									
CCn1c(-c2cnccc2COC)c2c3cc(ccc31)-c1cc(O)cc(c1)C[C@H](NC(=O)[C@H](C(C)C)N(C)C(=O)CN(C)C(=O)[C@H]1N[C@H]1C1CC1)C(=O)N1CCC[C@H](N1)C(=O)OCC(C)(C)C2 [Example 104]		< 5000 nM	1000 to 10000 nM									
CCn1c(-c2cnccc2COC)c2c3cc(ccc31)-c1cc(O)cc(c1)C[C@H](NC(=O)[C@H](C(C)C)N(C)C(=O)CN(C)C(=O)[C@@H]1N[C@@H]1C)C(=O)N1CCC[C@H](N1)C(=O)OCC(C)(C)C2 [Example 105]		< 5000 nM	1000 to 10000 nM									
CCn1c(-c2cnccc2COC)c2c3cc(ccc31)-c1cc(O)cc(c1)C[C@H](NC(=O)[C@H](C(C)C)N(C)C(=O)CN(C)C(=O)[C@@H]1N[C@@H]1c1ccccc1)C(=O)N1CCC[C@H](N1)C(=O)OCC(C)(C)C2 [Example 110]		< 5000 nM	1000 to 10000 nM									
CCn1c(-c2cccnc2[C@H](C)OC)c2c3cc(ccc31)-c1cc(O)cc(c1)C[C@H](NC(=O)[C@H](C(C)C)N(C)C(=O)[C@@H](C)N(C)C(=O)[C@H]1CN1)C(=O)N1CCC[C@H](N1)C(=O)OCC(C)(C)C2 [Example 114]	10 to 100 nM	< 5000 nM	1000 to 10000 nM	1000 to 10000 nM	100 to 1000 nM	1000 to 10000 nM	1000 to 10000 nM	1000 to 10000 nM	1000 to 10000 nM	10 to 100 nM		
CCn1c(-c2cnccc2COC)c2c3cc(ccc31)-c1cc(O)cc(c1)C[C@H](NC(=O)[C@H](C(C)C)N(C)C(=O)CN(C)C(=O)[C@H]1N[C@H]1c1ccccc1)C(=O)N1CCC[C@H](N1)C(=O)OCC(C)(C)C2 [Example 116]			> 10000 nM									
CCn1c(-c2cccnc2[C@H](C)OC)c2c3cc(ccc31)-c1cc(O)cc(c1)C[C@H](NC(=O)[C@H](C(C)C)N(C)C(=O)CN(C)C(=O)[C@H]1N[C@@H]1C1CC1)C(=O)N1CCC[C@H](N1)C(=O)OCC(C)(C)C2 [Example 135]	< 10 nM		100 to 1000 nM	< 10 nM	< 10 nM	10 to 100 nM	10 to 100 nM	10 to 100 nM	10 to 100 nM	< 10 nM		
CCn1c(-c2cccnc2[C@H](C)OC)c2c3cc(ccc31)-c1cc(O)cc(c1)C[C@H](NC(=O)[C@H](C(C)C)N(C)C(=O)CNC(=O)[C@H]1CN1)C(=O)N1CCC[C@H](N1)C(=O)OCC(C)(C)C2 [Example 140]	< 10 nM	< 5000 nM	1000 to 10000 nM	10 to 100 nM	< 10 nM	10 to 100 nM	10 to 100 nM	10 to 100 nM	10 to 100 nM	< 10 nM		
CCn1c(-c2cccnc2[C@H](C)OC)c2c3cc(ccc31)-c1cc(O)cc(c1)C[C@H](NC(=O)[C@H](C(C)C)N(C)C(=O)CNC(=O)[C@@H]1CN1)C(=O)N1CCC[C@H](N1)C(=O)OCC(C)(C)C2 [Example 147]	10 to 100 nM	< 5000 nM	1000 to 10000 nM	10 to 100 nM	10 to 100 nM	100 to 1000 nM	100 to 1000 nM	10 to 100 nM	10 to 100 nM	10 to 100 nM		
CCn1c(-c2cccnc2[C@H](C)OC)c2c3cc(ccc31)-c1cc(O)cc(c1)C[C@H](NC(=O)[C@H](C(C)C)N(C)C(=O)[C@H]1CCCN1C(=O)[C@@H]1CN1)C(=O)N1CCC[C@H](N1)C(=O)OCC(C)(C)C2 [Example 151]	< 10 nM	< 5000 nM	1000 to 10000 nM	100 to 1000 nM	100 to 1000 nM	100 to 1000 nM	100 to 1000 nM	10 to 100 nM	100 to 1000 nM	< 10 nM		
CCn1c(-c2cccnc2[C@H](C)OC)c2c3cc(ccc31)-c1cc(O)cc(c1)C[C@H](NC(=O)[C@H](C(C)C)N(C)C(=O)[C@H]1CCCN1C(=O)[C@H]1CN1)C(=O)N1CCC[C@H](N1)C(=O)OCC(C)(C)C2 [Example 152]	10 to 100 nM	< 5000 nM	1000 to 10000 nM	100 to 1000 nM	10 to 100 nM	100 to 1000 nM	100 to 1000 nM	100 to 1000 nM	100 to 1000 nM	10 to 100 nM		
CCn1c(-c2cccnc2[C@H](C)OC)c2c3cc(ccc31)-c1cc(O)cc(c1)C[C@H](NC(=O)[C@H](C(C)C)N(C)C(=O)[C@H]1CC[C@@H](C)N1C(=O)[C@@H]1CN1)C(=O)N1CCC[C@H](N1)C(=O)OCC(C)(C)C2 [Example 153]	10 to 100 nM	< 5000 nM	1000 to 10000 nM	100 to 1000 nM	100 to 1000 nM	100 to 1000 nM	100 to 1000 nM	100 to 1000 nM	100 to 1000 nM	10 to 100 nM		
CCn1c(-c2cccnc2[C@H](C)OC)c2c3cc(ccc31)-c1cc(O)cc(c1)C[C@H](NC(=O)[C@H](C(C)C)N(C)C(=O)[C@H]1CC[C@@H](C)N1C(=O)[C@H]1CN1)C(=O)N1CCC[C@H](N1)C(=O)OCC(C)(C)C2 [Example 154]	10 to 100 nM	< 5000 nM	1000 to 10000 nM	100 to 1000 nM	100 to 1000 nM	1000 to 10000 nM	1000 to 10000 nM	100 to 1000 nM	100 to 1000 nM	10 to 100 nM		
CCn1c(-c2cccnc2[C@H](C)OC)c2c3cc(ccc31)-c1cc(O)cc(c1)C[C@H](NC(=O)[C@H](C(C)C)N(C)C(=O)CN(C)C(=O)[C@H]1CN1CCO)C(=O)N1CCC[C@H](N1)C(=O)OCC(C)(C)C2 (stereo partly shown) [Example 161]	< 10 nM	< 5000 nM	1000 to 10000 nM	10 to 100 nM	10 to 100 nM	100 to 1000 nM	100 to 1000 nM	10 to 100 nM	10 to 100 nM	< 10 nM		
CCn1c(-c2cccnc2[C@H](C)OC)c2c3cc(ccc31)-c1cc(O)cc(c1)C[C@H](NC(=O)[C@@H](C(C)C)N(C)C(=O)[C@@]1(C)CCCN1C(=O)[C@H]1CN1)C(=O)N1CCC[C@H](N1)C(=O)OCC(C)(C)C2 [Example 240]											< 5000 nM	1000 to 10000 nM
CCn1c(-c2cccnc2[C@H](C)OC)c2c3cc(ccc31)-c1cc(O)cc(c1)C[C@H](NC(=O)[C@@H](C(C)C)N(C)C(=O)[C@@]1(C)CCCN1C(=O)[C@@H]1CN1)C(=O)N1CCC[C@H](N1)C(=O)OCC(C)(C)C2 [Example 242]											< 5000 nM	1000 to 10000 nM
CCn1c(-c2cccnc2[C@H](C)OC)c2c3cc(ccc31)-c1cc(O)cc(c1)C[C@H](NC(=O)[C@H](C(C)C)N(C)C(=O)[C@]13C[C@H]1CCN3C(=O)[C@H]1CN1)C(=O)N1CCC[C@H](N1)C(=O)OCC(C)(C)C2 [Example 244]											< 5000 nM	1000 to 10000 nM
